In brackets after ≈: the same amount, converted by molar mass.
What was measured:
Experiment in all cases: MIC, broth micro dilution assay (NCCLS)
Type in all cases: cell-based
[1] = system: Enterococcus faecalis A20688; conditions: Mueller-Hinton medium, 35° C., 18 hours
Description: (§1) The serial broth dilution method used Mueller-Hinton medium except for the Streptococcus pneumoniae which was tested in 50% Mueller-Hinton medium and 50% Todd Hewitt medium. The final bacterial inoculate contained approximately 5×10^5 cfu/well and was run on microtiter plates. The volume of each well was 100 μL and the plates were incubated at 35° C. for 18 hours in ambient air. The MIC was defined as the lowest drug concentration that prevented visible growth.

[2] = system: Staphylococcus aureus A15090; conditions: Mueller-Hinton medium, 35° C., 18 hours
Description: as §1

[3] = system: Streptococcus pneumoniae A28272; conditions: 50% Mueller-Hinton medium and 50% Todd Hewitt medium, 35° C., 18 hours
Description: as §1

Compound: C=C(NC(=O)c1csc(-c2nc3c(cc2OC)-c2nc(cs2)C(=O)NC(C(C)O)C(=O)NC(=C(C)OC)c2nc(cs2)C(=O)NC2c4nc(cs4)C(=O)NC(COC(=O)c4c5c6c(cccc6n4O)COC(=O)C(OC4CC(C)(O)C(N(C)C)C(C)O4)C2OC5)c2nc-3cs2)n1)C(N)=O (stereo not drawn) [Example 1]
- MIC (μg/mL) Enterococcus faecalis A20688 [1]: 0.015 µg/mL (≈ 0.0103 µM)
- MIC (μg/mL) Staphylococcus aureus A15090 [2]: 0.015 µg/mL (≈ 0.0103 µM)
- MIC (μg/mL) Streptococcus pneumoniae A28272 [3]: 0.003 µg/mL (≈ 0.00207 µM)

Compound: C=C(NC(=O)c1csc(-c2nc3c(cc2OCC(O)CO)-c2nc(cs2)C(=O)NC(C(C)O)C(=O)NC(=C(C)OC)c2nc(cs2)C(=O)NC2c4nc(cs4)C(=O)NC(COC(=O)c4c5c6c(cccc6n4O)COC(=O)C(OC4CC(C)(O)C(N(C)C)C(C)O4)C2OC5)c2nc-3cs2)n1)C(N)=O (stereo not drawn) [Example 3]
- MIC (μg/mL) Enterococcus faecalis A20688 [1]: 2.0 µg/mL (≈ 1.32 µM)
- MIC (μg/mL) Staphylococcus aureus A15090 [2]: 1.0 µg/mL (≈ 0.662 µM)
- MIC (μg/mL) Streptococcus pneumoniae A28272 [3]: 0.25 µg/mL (≈ 0.165 µM)

Compound: C=C(NC(=O)c1csc(-c2nc3c(cc2O)-c2nc(cs2)C(=O)NC(C(C)O)C(=O)NC(=C(C)OC)c2nc(cs2)C(=O)NC2c4nc(cs4)C(=O)NC(COC(=O)c4c5c6c(cccc6n4OC)COC(=O)C(OC4CC(C)(O)C(N(C)C)C(C)O4)C2OC5)c2nc-3cs2)n1)C(N)=O (stereo not drawn) [Example 6]
- MIC (μg/mL) Enterococcus faecalis A20688 [1]: 0.125 µg/mL (≈ 0.0861 µM)
- MIC (μg/mL) Staphylococcus aureus A15090 [2]: 0.03 µg/mL (≈ 0.0207 µM)
- MIC (μg/mL) Streptococcus pneumoniae A28272 [3]: 0.003 µg/mL (≈ 0.00207 µM)

Compound: C=C(NC(=O)c1csc(-c2nc3c(cc2O)-c2nc(cs2)C(=O)NC(C(C)O)C(=O)NC(=C(C)OC)c2nc(cs2)C(=O)NC2c4nc(cs4)C(=O)NC(COC(=O)c4c5c6c(cccc6n4OCCCS(=O)(=O)[O-])COC(=O)C(OC4CC(C)(O)C(N(C)C)C(C)O4)C2OC5)c2nc-3cs2)n1)C(N)=O.[Na+] (stereo not drawn) [Example 7]
- MIC (μg/mL) Enterococcus faecalis A20688 [1]: 0.125 µg/mL
- MIC (μg/mL) Staphylococcus aureus A15090 [2]: 0.125 µg/mL
- MIC (μg/mL) Streptococcus pneumoniae A28272 [3]: 0.007 µg/mL

Compound: C=C(NC(=O)c1csc(-c2nc3c(cc2O)-c2nc(cs2)C(=O)NC(C(C)O)C(=O)NC(=C(C)OC)c2nc(cs2)C(=O)NC2c4nc(cs4)C(=O)NC(COC(=O)c4c5c6c(cccc6n4OCC(N)=O)COC(=O)C(OC4CC(C)(O)C(N(C)C)C(C)O4)C2OC5)c2nc-3cs2)n1)C(N)=O (stereo not drawn) [Example 8]
- MIC (μg/mL) Enterococcus faecalis A20688 [1]: 0.25 µg/mL (≈ 0.167 µM)
- MIC (μg/mL) Staphylococcus aureus A15090 [2]: 0.5 µg/mL (≈ 0.335 µM)
- MIC (μg/mL) Streptococcus pneumoniae A28272 [3]: 0.03 µg/mL (≈ 0.0201 µM)

Compound: C=C(NC(=O)c1csc(-c2nc3c(cc2OCC(N)=O)-c2nc(cs2)C(=O)NC(C(C)O)C(=O)NC(=C(C)OC)c2nc(cs2)C(=O)NC2c4nc(cs4)C(=O)NC(COC(=O)c4c5c6c(cccc6n4OCC(N)=O)COC(=O)C(OC4CC(C)(O)C(N(C)C)C(C)O4)C2OC5)c2nc-3cs2)n1)C(N)=O (stereo not drawn) [Example 9]
- MIC (μg/mL) Enterococcus faecalis A20688 [1]: 4.0 µg/mL (≈ 2.58 µM)
- MIC (μg/mL) Staphylococcus aureus A15090 [2]: 2.0 µg/mL (≈ 1.29 µM)
- MIC (μg/mL) Streptococcus pneumoniae A28272 [3]: 0.125 µg/mL (≈ 0.0806 µM)

Compound: C=C(NC(=O)c1csc(-c2nc3c(cc2O)-c2nc(cs2)C(=O)NC(C(C)O)C(=O)NC(=C(C)OC)c2nc(cs2)C(=O)NC2c4nc(cs4)C(=O)NC(COC(=O)c4c5c6c(cccc6n4OCc4ccc(C(=O)OC6CCCCO6)cc4)COC(=O)C(OC4CC(C)(O)C(N(C)C)C(C)O4)C2OC5)c2nc-3cs2)n1)C(N)=O (stereo not drawn) [Example 10]
- MIC (μg/mL) Enterococcus faecalis A20688 [1]: 0.5 µg/mL (≈ 0.302 µM)
- MIC (μg/mL) Staphylococcus aureus A15090 [2]: 0.5 µg/mL (≈ 0.302 µM)
- MIC (μg/mL) Streptococcus pneumoniae A28272 [3]: 0.015 µg/mL (≈ 0.00906 µM)

Compound: C=C(NC(=O)c1csc(-c2nc3c(cc2O)-c2nc(cs2)C(=O)NC(C(C)O)C(=O)NC(=C(C)OC)c2nc(cs2)C(=O)NC2c4nc(cs4)C(=O)NC(COC(=O)c4c5c6c(cccc6n4OCc4ccc(C(=O)O)cc4)COC(=O)C(OC4CC(C)(O)C(N(C)C)C(C)O4)C2OC5)c2nc-3cs2)n1)C(N)=O (stereo not drawn) [Example 11]
- MIC (μg/mL) Enterococcus faecalis A20688 [1]: >128 µg/mL
- MIC (μg/mL) Staphylococcus aureus A15090 [2]: 16 µg/mL (≈ 10.2 µM)
- MIC (μg/mL) Streptococcus pneumoniae A28272 [3]: 0.06 µg/mL (≈ 0.0382 µM)

Compound: C=C(NC(=O)c1csc(-c2nc3c(cc2O)-c2nc(cs2)C(=O)NC(C(C)O)C(=O)NC(=C(C)OC)c2nc(cs2)C(=O)NC2c4nc(cs4)C(=O)NC(COC(=O)c4c5c6c(cccc6n4OCOP(=O)(O)O)COC(=O)C(OC4CC(C)(O)C(N(C)C)C(C)O4)C2OC5)c2nc-3cs2)n1)C(N)=O (stereo not drawn) [Example 12]
- MIC (μg/mL) Enterococcus faecalis A20688 [1]: 1.0 µg/mL (≈ 0.646 µM)
- MIC (μg/mL) Staphylococcus aureus A15090 [2]: 0.25 µg/mL (≈ 0.162 µM)
- MIC (μg/mL) Streptococcus pneumoniae A28272 [3]: 0.015 µg/mL (≈ 0.00969 µM)

Compound: C=C(NC(=O)c1csc(-c2nc3c(cc2O)-c2nc(cs2)C(=O)NC(C(C)O)C(=O)NC(=C(C)OC)c2nc(cs2)C(=O)NC2c4nc(cs4)C(=O)NC(COC(=O)c4c5c6c(cccc6n4OCCCl)COC(=O)C(OC4CC(C)(O)C(N(C)C)C(C)O4)C2OC5)c2nc-3cs2)n1)C(N)=O.Cl (stereo not drawn) [Example 13]
- MIC (μg/mL) Enterococcus faecalis A20688 [1]: 0.03 µg/mL
- MIC (μg/mL) Staphylococcus aureus A15090 [2]: 0.015 µg/mL
- MIC (μg/mL) Streptococcus pneumoniae A28272 [3]: 0.003 µg/mL

Compound: C=C(NC(=O)c1csc(-c2nc3c(cc2O)-c2nc(cs2)C(=O)NC(C(C)O)C(=O)NC(=C(C)OC)c2nc(cs2)C(=O)NC2c4nc(cs4)C(=O)NC(COC(=O)c4c5c6c(cccc6n4OCCC[N+](C)(C)C)COC(=O)C(OC4CC(C)(O)C(N(C)C)C(C)O4)C2OC5)c2nc-3cs2)n1)C(N)=O (stereo not drawn) [Example 14]
- MIC (μg/mL) Enterococcus faecalis A20688 [1]: 2.0 µg/mL
- MIC (μg/mL) Staphylococcus aureus A15090 [2]: >128 µg/mL
- MIC (μg/mL) Streptococcus pneumoniae A28272 [3]: 0.5 µg/mL

Compound: C=C(NC(=O)c1csc(-c2nc3c(cc2O)-c2nc(cs2)C(=O)NC(C(C)O)C(=O)NC(=C(C)OC)c2nc(cs2)C(=O)NC2c4nc(cs4)C(=O)NC(COC(=O)c4c5c6c(cccc6n4OC(=O)NCCCC)COC(=O)C(OC4CC(C)(O)C(N(C)C)C(C)O4)C2OC5)c2nc-3cs2)n1)C(N)=O (stereo not drawn) [Example 15]
- MIC (μg/mL) Enterococcus faecalis A20688 [1]: 0.03 µg/mL (≈ 0.0195 µM)
- MIC (μg/mL) Staphylococcus aureus A15090 [2]: ≦0.001 μg/mL
- MIC (μg/mL) Streptococcus pneumoniae A28272 [3]: 0.007 µg/mL (≈ 0.00456 µM)

Compound: C=C(NC(=O)c1csc(-c2nc3c(cc2O)-c2nc(cs2)C(=O)NC(C(C)O)C(=O)NC(=C(C)OC)c2nc(cs2)C(=O)NC2c4nc(cs4)C(=O)NC(COC(=O)c4c5c6c(cccc6n4OC(=O)NCCCN4CCN(C)CC4)COC(=O)C(OC4CC(C)(O)C(N(C)C)C(C)O4)C2OC5)c2nc-3cs2)n1)C(N)=O (stereo not drawn) [Example 16]
- MIC (μg/mL) Enterococcus faecalis A20688 [1]: 0.003 µg/mL (≈ 0.00185 µM)
- MIC (μg/mL) Staphylococcus aureus A15090 [2]: 0.003 µg/mL (≈ 0.00185 µM)
- MIC (μg/mL) Streptococcus pneumoniae A28272 [3]: 0.0005 µg/mL (≈ 0.000308 µM)

Compound: C=C(NC(=O)c1csc(-c2nc3c(cc2OC)-c2nc(cs2)C(=O)NC(C(C)O)C(=O)NC(=C(C)OC)c2nc(cs2)C(=O)NC2c4nc(cs4)C(=O)NC(COC(=O)c4c5c6c(cccc6n4OC)COC(=O)C(OC4CC(C)(O)C(N(C)C)C(C)O4)C2OC5)c2nc-3cs2)n1)C(N)=O (stereo not drawn) [Example 18]
- MIC (μg/mL) Enterococcus faecalis A20688 [1]: 0.015 µg/mL (≈ 0.0102 µM)
- MIC (μg/mL) Staphylococcus aureus A15090 [2]: 0.007 µg/mL (≈ 0.00478 µM)
- MIC (μg/mL) Streptococcus pneumoniae A28272 [3]: 0.001 µg/mL (≈ 0.000682 µM)

Compound: C=C(NC(=O)c1csc(-c2nc3c(cc2OCC(=O)OC)-c2nc(cs2)C(=O)NC(C(C)O)C(=O)NC(=C(C)OC)c2nc(cs2)C(=O)NC2c4nc(cs4)C(=O)NC(COC(=O)c4c5c6c(cccc6n4OCC(=O)OC)COC(=O)C(OC4CC(C)(O)C(N(C)C)C(C)O4)C2OC5)c2nc-3cs2)n1)C(N)=O (stereo not drawn) [Example 19]
- MIC (μg/mL) Enterococcus faecalis A20688 [1]: 0.125 µg/mL (≈ 0.079 µM)
- MIC (μg/mL) Staphylococcus aureus A15090 [2]: 0.06 µg/mL (≈ 0.0379 µM)
- MIC (μg/mL) Streptococcus pneumoniae A28272 [3]: 0.003 µg/mL (≈ 0.0019 µM)

Compound: C=C(NC(=O)c1csc(-c2nc3c(cc2OCC(=O)O)-c2nc(cs2)C(=O)NC(C(C)O)C(=O)NC(=C(C)OC)c2nc(cs2)C(=O)NC2c4nc(cs4)C(=O)NC(COC(=O)c4c5c6c(cccc6n4OCC(=O)O)COC(=O)C(OC4CC(C)(O)C(N(C)C)C(C)O4)C2OC5)c2nc-3cs2)n1)C(N)=O.O=C(O)C(F)(F)F (stereo not drawn) [Example 20]
- MIC (μg/mL) Enterococcus faecalis A20688 [1]: >128 µg/mL
- MIC (μg/mL) Staphylococcus aureus A15090 [2]: 16 µg/mL
- MIC (μg/mL) Streptococcus pneumoniae A28272 [3]: 0.5 µg/mL

Compound: C=C(NC(=O)c1csc(-c2nc3c(cc2OCOP(=O)([O-])O)-c2nc(cs2)C(=O)NC(C(C)O)C(=O)NC(=C(C)OC)c2nc(cs2)C(=O)NC2c4nc(cs4)C(=O)NC(COC(=O)c4c5c6c(cccc6n4OCOP(=O)([O-])O)COC(=O)C(OC4CC(C)(O)C(N(C)C)C(C)O4)C2OC5)c2nc-3cs2)n1)C(N)=O.[Na+].[Na+] (stereo not drawn) [Example 22]
- MIC (μg/mL) Enterococcus faecalis A20688 [1]: 0.25 µg/mL
- MIC (μg/mL) Staphylococcus aureus A15090 [2]: 0.125 µg/mL
- MIC (μg/mL) Streptococcus pneumoniae A28272 [3]: 0.015 µg/mL

Compound: C=C(NC(=O)c1csc(-c2nc3c(cc2O)-c2nc(cs2)C(=O)NC(C(C)O)C(=O)NC(=C(C)OC)c2nc(cs2)C(=O)NC2c4nc(cs4)C(=O)NC(COC(=O)c4c5c6c(cccc6n4OC(C)=O)COC(=O)C(OC4CC(C)(O)C(N(C)C)C(C)O4)C2OC5)c2nc-3cs2)n1)C(N)=O (stereo not drawn) [Example 23]
- MIC (μg/mL) Enterococcus faecalis A20688 [1]: 0.25 µg/mL (≈ 0.169 µM)
- MIC (μg/mL) Staphylococcus aureus A15090 [2]: 0.03 µg/mL (≈ 0.0203 µM)
- MIC (μg/mL) Streptococcus pneumoniae A28272 [3]: 0.06 µg/mL (≈ 0.0406 µM)

Compound: C=C(NC(=O)c1csc(-c2nc3c(cc2OC(C)=O)-c2nc(cs2)C(=O)NC(C(C)O)C(=O)NC(=C(C)OC)c2nc(cs2)C(=O)NC2c4nc(cs4)C(=O)NC(COC(=O)c4c5c6c(cccc6n4O)COC(=O)C(OC4CC(C)(O)C(N(C)C)C(C)O4)C2OC5)c2nc-3cs2)n1)C(N)=O.Cl (stereo not drawn) [Example 24]
- MIC (μg/mL) Enterococcus faecalis A20688 [1]: 0.015 µg/mL
- MIC (μg/mL) Staphylococcus aureus A15090 [2]: 0.03 µg/mL
- MIC (μg/mL) Streptococcus pneumoniae A28272 [3]: 0.03 µg/mL
